Source: US6818618B1, “Inhibition of smooth muscle cell migration by Tenascin-C peptides” (Cedars-Sinai Medical Center, priority 1998, dated 2004)
“Also recorded” adds a separate entry of the source.

Columns and labels:
[1] = system: adhesion of newborn SMCs to the recombinant 10th-type III repeat of fibronectin; assay: Adhesion of newborn SMCs to the recombinant 10th-type III repeat of fibronectin in the presence of soluble agents; assay type: cell-based, rat
Experimental: (§1) Microtiter plates (Falcon, Becton Dickinson, Oxnard, Calif.) were coated with the respective substrate for one (1) hour at 37° C. Nonspecific sites were blocked with 1 mg/ml BSA in PBS. […] After incubation for 60 min. at 37° C., nonadherent cells were removed with gentle washing with PBS. The number of attached cells were quantified by staining cells with 0.2% crystal violet in 20% methanol, lysing with 1% SDS, and measuring the absorbance at 550 nm (14).
(§2) It has been shown that the interaction of some cells with Tenascin-C is mediated by the RGD motif (20, 23). Therefore, an adhesion assay was used to determine the role of RGD in the interaction between Tenascin-C and SMCs. The specificity of the adhesion was determined by coating the wells with the recombinant 10th-type III repeat of fibronectin (24). In FIG. 2, 96-well plates were coated with either BSA (BSA), Tenascin-C (TN), or the recombinant 10th-type III repeat of fibronectin (10III) as described for FIG. 1. Newborn SMCs were detached, washed once in adhesion buffer and added to various concentrations of the peptide GRGDS. Cells and peptides were then preincubated for 30 min. prior to plating. The values shown are the mean±SEM of triplicate samples. Nonspecific binding to control wells coated with BSA was not subtracted from each value.
(§3) In FIG. 3, 96-well plates were coated with solutions containing intact fibronectin (FN), the recombinant 10th-type III repeat of fibronectin (FN10III), or Tenascin-C (TN). […] The number of attached cells was quantified by a colorimeter. Values shown are from a representative experiment in which triplicates are plotted as mean±SEM.
(§4) In FIG. 4, 96-well plates were coated with either Tenascin-C (TN) or the recombinant tenth type III repeat of fibronectin (10III) as described for FIG. 1. […] Values shown are from the mean±SD of triplicate samples.
To distinguish between these possibilities, the recombinant FN-L proteins were labeled with ^125I, and their ability to coat the tissue culture dishes was compared to the Fbg-L domain. […] Adhesion was measured as described above. […]

[2] = system: adhesion of newborn SMCs to Tenascin-C; assay: Adhesion of newborn SMCs to Tenascin-C-coated wells in the presence of soluble agents; assay type: cell-based, rat; conditions: for inhibition of attachment of SMCs to Tenascin-C: 0.1 mg/ml GRGDS peptide, higher concentrations did not significantly alter adhesion; for effect on adhesion of SMCs to Tenascin-C (summary statement): concentration not given
Experimental: as §1, §2, §3, §4
To distinguish between these possibilities, the recombinant FN-L proteins were labeled with ^125I, and their ability to coat the tissue culture dishes was compared to the Fbg-L domain. […] To determine whether the binding to tissue culture dishes had influenced the activity of the recombinant proteins, the ability of soluble Fbg-L or FN-L domains and subdomains to inhibit the interaction between intact Tenascin-C and SMCs was examined. […] In FIG. 6, 96-well plates were coated with fibronectin (FN), the recombinant tenth type III repeat of fibronectin (10III), or an intact Tenascin-C molecule (TN). Newborn SMCs were incubated for 15 min. at 37° C. with a solution of 200 μg/ml of a recombinant Fbg-L domain, the entire FN-L domain (FN-L), or the alternatively spliced A-D repeats (AD). […] Adhesion was measured as described above. Values shown are from representative experiments in which triplicates are plotted±SEM.
(§5) In FIG. 8(B), 96-well plates were coated with BSA, intact Tenascin-C (TN) or the fibrinogen-like domain (Fbg-L), and adhesion of newborn cells was measured in the presence of 1 μM synthetic peptides.

[3] = system: newborn rat SMCs migration on collagen substrate; assay: Migration assay (modified Boyden's chamber) on collagen substrate; assay type: cell-based; conditions: Fbg-L or 1 μM peptide VIII in upper chamber
Experimental: (§6) Cell migration was measured by a modification of the Boyden's chamber method using microchemotaxis chambers (Neuro Probe Inc.). Polycarbonate filters were coated with 10 μg/ml of substrates overnight at 4° C. Newborn rat SMCs were suspended at a concentration of 10^5 cells/ml in serum-free DMEM supplemented with 1 mg/ml BSA. A volume of 50 μl of cell suspension was placed in the upper chamber, and 30 μl of 10% bovine calf serum in DMEM was placed in the lower chamber. In some experiments, cells were suspended in DMEM supplemented with 0.1 μM of the fibrinogen-like domain (Fbg-L) or 1 μM of peptide VIII before addition to the upper chamber. The chamber was incubated at 37° C. under 5% CO2 in air for 4 hours. The filter was removed, and the cells on the upper side of the filter were scraped off. The SMCs that had migrated to the lower side of the filter were fixed in methanol, stained with Diff-Quick staining solution (Baxter) and counted under a microscope.
(§7) To map the active domain of Tenascin-C that is involved in cell migration, the ability of the recombinant domains to block SMCs migration on a Tenascin-C substrate was determined. […] In FIG. 9, cell migration was measured by a modification of Boyden's chamber. […] Migrating cells were fixed and counted under a microscope. Nine high power fields (HPF) were counted for each triplicate. […]

[4] = system: newborn aortic SMCs; assay: Adhesion assay: newborn SMCs on wells coated with the substance; assay type: cell-based, rat; conditions: for adhesion activity relative to the Fbg-L domain: peptide coated at 10 μg/ml on tissue culture dishes; for level of adhesion of newborn SMCs to coated substrate: wells coated with 10 μg/ml substrate
Experimental: (§8) Adult Aortic SMCs were cultured as described (12). Newborn (9-day old) aortic SMCs were obtained from Dr. Stephen, M. Schwartz, of University of Washington, and subsequently cultured (13). Briefly, rat aortic SMCs were isolated by enzymatic digestion of rat aorta (Sprague-Dawley, 2 months old, 270 g). Cells were grown in DMEM/F12 media (Gibco) supplemented with 10% fetal bovine serum (Gibco). After reaching confluence, cells (between 3rd and 6th passages) were used for adhesion studies.
as §1
To determine the concentration for the adhesion assays, microtiter plates were coated with increasing concentrations (1-100 μg/ml) of substrates, and the number of adherent cells was quantified. Adhesion of cells to Tenascin-C reached saturation levels at coating concentrations of 10 μg/ml (not shown). Therefore, all the subsequent adhesion assays were performed by coating the wells with a 10 μg/ml substrate.
The active domain of Tenascin-C was mapped using recombinant proteins corresponding to full-length Fbg-L and FN-L domains as well as FN-L subdomains 6-8, A-D, A1A2, and D. The ability of these domains, or subdomains, to interact with newborn SMCs was determined by an adhesion assay, and the results are shown in FIG. 5. In FIG. 5, a microtiter plate was coated with BSA, fibronectin (FN), intact Tenascin-C (TN), and the recombinant proteins corresponding to: the Fbg-L domain (Fbg-L), the entire FN-L repeats (AII), the constitutively spliced repeats 6-8, the alternatively spliced A-D, A1A2, and D domains. An adhesion assay was performed with newborn SMCs. Values shown are from a representative experiment in which triplicates are plotted±SEM.
The ability of the synthetic peptides to directly interact with newborn cells was determined by an adhesion assay. […] In FIG. 8, 96-well plates were coated with solutions containing BSA (C), fibronectin (FN), Tenascin-C (TN), the fibrinogen-like domain (Fbg-L), and synthetic peptides at a concentration of 10 μg/ml in PBS. An adhesion assay was performed with newborn rat SMCs. Tissue culture plates were coated with increasing concentrations of peptides from 0.1 to 10 μg/ml, and the adhesion of newborn cells was measured. Values shown are from a representative experiment in which triplicates are plotted as mean±SEM.

[5] = system: newborn rat SMCs migration on Tenascin-C substrate; assay: Migration assay (modified Boyden's chamber) on Tenascin-C substrate; assay type: cell-based
Experimental: as §6, §7

[6] = system: adult rat aortic SMCs; assay: Adhesion assay: adult aortic SMCs on wells coated with the substance; assay type: cell-based; conditions: for adhesion of adult SMCs to coated substrate: 60 min, crystal violet absorbance
Experimental: as §8, §1
Interaction between aortic SMCs and Tenascin-C was assessed by an adhesion assay. […] In FIG. 1, 96-well plates were coated with solutions containing intact fibronectin (FN), vitronectin (VN) or Tenascin-C (TN) and incubated with either adult or newborn aortic SMCs. Adhesion is measured by determining absorbance of attached cells after staining with crystal violet. Values shown are from a representative experiment in which triplicates are plotted as mean±SEM.

[7] = system: adhesion of newborn SMCs to the Fbg-L domain; assay: Adhesion of newborn SMCs to Fbg-L domain-coated wells in the presence of soluble agents; assay type: cell-based, rat; conditions: EDTA or cations; not shown
Experimental: as §1, §5

[8] = system: adhesion of SMCs to peptide VIII; assay: Adhesion of SMCs to peptide VIII-coated wells in the presence of soluble agents; assay type: cell-based, rat; conditions: EDTA or cations; not shown
Experimental: as §1

[9] = increasing cation concentration
[10] = various concentrations of cation

Question: Which results are given for GRGDS?
Answer: inhibition of attachment of newborn SMCs to the recombinant fibronectin fragment ([1]; 0.1 mg/ml peptide, 30 min preincubation): complete inhibition; inhibition of attachment of SMCs to Tenascin-C [2]: approximately 30%; inhibition of attachment of SMCs to Tenascin-C ([2]; listed as RGD peptide): 30%

Question: How did the “effect on migration of SMCs on collagen substrate” value [3] turn out when “peptide VIII: 30 amino acid synthetic peptide located near the C-terminal part of the Fbg-L domain of Tenascin-C, Seq. Id. No. 8 (WYRNCHRVNLMGRYGDNNHSQGVNWFHWKG)” was run?
Answer: did not interfere

Question: What about the “adhesion activity relative to the Fbg-L domain” value [4] of the same molecule?
Answer: 80%

Question: What about the “level of adhesion of newborn SMCs to coated substrate” value [4] of the same molecule?
Answer: strongly promoting newborn cell adhesion

Question: What about the “inhibition of SMCs chemotaxis on Tenascin-C substrate” value ([5]; 0.1 μM Fbg-L or 1 μM peptide VIII in upper chamber, 4 hours) of the same molecule?
Answer: ~70%

Question: What about the “effect on adhesion of SMCs to Tenascin-C (summary statement)” value [2] of the same molecule?
Answer: completely blocked

Question: For GRFDS, which “effect of inactive control peptide on adhesion (compared with GRGDS)” value ([2]; not shown) is on record?
Answer: no effect

Question: How did the “coating concentration at which cell adhesion reached saturation levels” value ([4]; increasing coating concentrations) turn out when “Tenascin-C: intact Tenascin-C purified from conditioned media of BHK cells overexpressing Tenascin-C” was run?
Answer: 10 µg/mL

Question: And the “adhesion of newborn SMCs to Tenascin-C relative to adult cells” value ([4]; newborn vs adult SMCs, coated wells)?
Answer: 3-4 times higher

Question: And the “level of adhesion of newborn SMCs to coated substrate” value [4]?
Answer: comparable to the attachment levels observed with fibronectin; also recorded: high compared to the fibronectin

Question: And the “SMCs chemotaxis on coated substrate compared to BSA” value ([5]; filters coated with 10 μg/ml substrate)?
Answer: stimulated

Question: And the “adhesion of adult SMCs to Tenascin-C relative to attachment to the adhesive proteins (fibronectin, vitronectin)” value ([6]; coated wells)?
Answer: 3-4 times lower

Question: With “IX: 30 amino acid synthetic peptide from the C-terminal part of the Fbg-L domain of Tenascin-C, Seq. Id. No. 9 (FHWKGHEHSIQFAEMKLRPSNFRNLEGRRKRA)” as the molecule, how does the “adhesion activity relative to the Fbg-L domain” value [4] read?
Answer: 30%

Question: fibronectin was tested. Which “adhesion of adult SMCs to coated substrate” value [6] did it give?
Answer: avidly adhered

Question: What does the source list for `[Mg+2]` [Mg^2+]?
Answer: cation concentration giving maximal cell adhesion to the recombinant fibronectin fragment [1, 9]: 5 to 10 mM; effect of cation on newborn SMCs adhesion to the recombinant fibronectin fragment [1, 10]: increased; effect on adhesion of SMCs to the Fbg-L domain [7]: promoted; effect on adhesion of SMCs to Tenascin-C (summary statement) [2]: promoted; increase potential for the interaction between newborn SMCs and Tenascin-C ([2]; in the presence of Mg^2+): three-fold; cation concentration giving maximal cell adhesion to Tenascin-C [2, 9]: 5 to 10 mM; effect of cation on newborn SMCs adhesion to Tenascin-C [2, 10]: increased; effect on adhesion to peptide VIII [8]: promoted

B1: vitronectin: vitronectin matrix protein (protein, UniProt P04004 20-478, looked up)
Vitronectin: DQESCKGRCTEGFNVDKKCQCDELCSYYQSCCTDYTAECKPQVTRGDVFTMPEDEYTVYDDGEEKNNATVHEQVGGPSLTSDLQAQSKGNPEQTPVLKPEEEAPAPEVGASKPEGIDSRPETLHPGRPQPPAEEELCSGKPFDAFTDLKNGSLFAFRGQYCYELDEKAVRPGYPKLIRDVWGIEGPIDAAFTRINCQGKTYLFKGSQYWRFEDGVLDPDYPRNISDGFDGIPDNVDAALALPAHSYSGRERVYFFKGKQYWEYQFQHQPSQEECEGSSLSAVFEHFAMMQRDSWEDIFELLFWGRTSAGTRQPQFISRDWHGVPGQVDAAMAGRIYISGMAPRPSLAKKQRFRHRNRKGYRSQRGHSRGRNQNSRRPSRATWLSLFSSEESNLGANNYDDYRMDWLVPATCEPIQSVFFFSGDKYYRVNLRTRRVDTVDPPYPRSIAQYWLGCPAPGHL
Question: B1 was tested. Which “adhesion of adult SMCs to coated substrate” value [6] did it give?
Answer: avidly adhered
